Laboratory results reported in patent US10144742B2 (Millennium Pharmaceuticals, Inc., priority 2014, dated 2018).
Like-named read-outs stand apart in the source and are kept apart here.

Assays:
hNAMPT protein = hNAMPT protein (Homo sapiens (Human), UniProt P43490); assay: NAMPT enzyme assay (TR-FRET/HTRF, BodiPY ligand, anti 6His-Tb); format: binding; settings: for IC50: read-out: IC50; for inhibition at 1 µM: read-out: Percent Inhibition
Summary of the method: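 TR-FRET binding assay in which His-tagged human NAMPT with anti-6His-Tb is displaced by compound from a BodiPY ligand, incubated 1 h at rt in the dark. Excitation was at 320 nm, with the 520/486 nm emission ratio read. IC50 was fitted from inhibition relative to DMSO controls.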

PC3 cells = assay: PC3 growth inhibition (Cell-titer glo, 72 hours); format: cell-based; settings: Homo sapiens, PC-3, PC3 cells, 72 hours, Cell-titer glo, read-out: Percent Inhibition (PC3 growth inhibition); for inhibition at 1 µM: compound concentration 1 μM; for inhibition at 1.667 µM: compound concentration 1.667 μM
Summary of the method: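 PC3 cells in RPMI1640 seeded overnight at 37 °C, 5% CO2, then exposed to compound diluted in AIM serum-free medium for 72 h. Viability by CellTiter-Glo luminescence vs DMSO controls; single-concentration % remaining viability (1 μM or 1.667 μM), or GI50/LD50 from curves.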

[1] = NAMPT inhibition at compound concentration 1 μM
[2] = NAMPT inhibition, IC50 range class

Sequence of hNAMPT protein (P43490 whole entry): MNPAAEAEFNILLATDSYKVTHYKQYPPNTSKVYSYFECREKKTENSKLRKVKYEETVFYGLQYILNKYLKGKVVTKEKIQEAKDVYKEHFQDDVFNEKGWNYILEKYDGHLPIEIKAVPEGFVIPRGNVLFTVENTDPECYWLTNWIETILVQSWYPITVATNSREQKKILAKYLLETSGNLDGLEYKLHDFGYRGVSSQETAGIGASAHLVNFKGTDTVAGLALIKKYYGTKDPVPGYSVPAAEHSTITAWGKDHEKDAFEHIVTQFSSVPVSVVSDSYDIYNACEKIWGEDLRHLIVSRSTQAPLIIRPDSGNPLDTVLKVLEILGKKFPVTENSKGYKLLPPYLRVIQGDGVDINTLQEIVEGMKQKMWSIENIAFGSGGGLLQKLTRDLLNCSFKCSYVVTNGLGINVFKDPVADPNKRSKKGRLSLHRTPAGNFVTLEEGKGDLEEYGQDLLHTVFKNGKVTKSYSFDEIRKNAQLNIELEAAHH

With `O=C(NCCCn1ccnc1)c1ccc2nc(-c3ccccc3)c(-c3ccc(Cl)cc3)nc2c1` [Compound I-79, 3-(4-chlorophenyl)-N-[3-(1H-imidazol-1-yl)propyl]-2-phenylquinoxaline-6-carboxamide] the IC50 (hNAMPT protein; NAMPT IC50 range class) was < 100 nM, the inhibition at 1 µM (hNAMPT protein; compound concentration 1 μM) was 93% and the inhibition at 1 µM (PC3 cells) was -8%.
In the case of `O=C(NCCCn1ccnc1)c1ccc2nc(N3CCC(N4CCNCC4)CC3)c(-c3ccccc3)nc2c1` [Compound I-112, N-[3-(1H-imidazol-1-yl)propyl]-3-phenyl-2-[4-(piperazin-1-yl)piperidin-1-yl]quinoxaline-6-carboxamide], the IC50 (hNAMPT protein; NAMPT IC50 range class) is reported as < 100 nM, the inhibition at 1 µM (hNAMPT protein; compound concentration 1 μM) is reported as 100% and the inhibition at 1 µM (PC3 cells) is reported as -1%.
`O=C(NCCCc1ncc[nH]1)c1ccc2nc(OCC3CCCCO3)c(-c3ccc(F)cc3)nc2c1` (stereo not drawn) [Compound I-323, 3-(4-fluorophenyl)-N-[3-(1H-imidazol-2-yl)propyl]-2-(tetrahydro-2H-pyran-2-ylmethoxy)quinoxaline-6-carboxamide] was tested, and the IC50 (hNAMPT protein; NAMPT IC50 range class) was < 100 nM, the inhibition at 1 µM (hNAMPT protein; compound concentration 1 μM) was 99% and the inhibition at 1.667 µM (PC3 cells) was 3%.
In the case of `COC1CC(Oc2nc3ccc(C(=O)NCCCc4ncc[nH]4)cc3nc2-c2ccc(F)cc2)C1` (stereo not drawn) [Compound I-427, 3-(4-fluorophenyl)-N-[3-(1H-imidazol-2-yl)propyl]-2-[(3-methoxycyclobutyl)oxy]quinoxaline-6-carboxamide], the inhibition at 1 µM (hNAMPT protein; [1]) is reported as 99%, the IC50 (hNAMPT protein; [2]) is reported as < 100 nM and the inhibition at 1.667 µM (PC3 cells) is reported as 2%.
Work on `N#Cc1ccc(-c2nc3ccc(C(=O)NCCCn4ccnc4)cc3nc2-c2ccccc2)cc1` [Compound I-131, 2-(4-cyanophenyl)-N-[3-(1H-imidazol-1-yl)propyl]-3-phenylquinoxaline-6-carboxamide] yielded an IC50 (hNAMPT protein; NAMPT IC50 range class) of 500 to 1000 nM, an inhibition at 1 µM (hNAMPT protein; compound concentration 1 μM) of 64% and an inhibition at 1 µM (PC3 cells) of -8%.
`CN1CCN(c2nc3ccc(C(=O)NCCCn4ccnc4)cc3nc2-c2ccccc2)CC1=O` [Compound I-81, N-[3-(1H-imidazol-1-yl)propyl]-2-(4-methyl-3-oxopiperazin-1-yl)-3-phenylquinoxaline-6-carboxamide] showed an IC50 (hNAMPT protein; NAMPT IC50 range class) of 500 to 1000 nM, an inhibition at 1 µM (hNAMPT protein; compound concentration 1 μM) of 63% and an inhibition at 1 µM (PC3 cells) of -7%.
With `O=C(NCc1cn2cccnc2n1)c1ccc2nc(N3CCC(N4CCOCC4)CC3)c(-c3ccc(F)cc3)nc2c1` [Compound I-204, 3-(4-fluorophenyl)-N-(imidazo[1,2-a]pyrimidin-2-ylmethyl)-2-[4-(morpholin-4-yl)piperidin-1-yl]quinoxaline-6-carboxamide] the IC50 (hNAMPT protein; NAMPT IC50 range class) was < 100 nM, the inhibition at 1 µM (hNAMPT protein; compound concentration 1 μM) was > 99% and the inhibition at 1.667 µM (PC3 cells) was 63%.
Work on `COc1ccc(-c2nc3cc(C(=O)NCCCc4ncc[nH]4)ccc3nc2-c2ccc(F)cc2)c(F)c1` [Compound I-415, 3-(2-fluoro-4-methoxyphenyl)-2-(4-fluorophenyl)-N-[3-(1H-imidazol-2-yl)propyl]quinoxaline-6-carboxamide] yielded an inhibition at 1 µM (hNAMPT protein; [1]) of 75%, an IC50 (hNAMPT protein; [2]) of 100 to 500 nM and an inhibition at 1.667 µM (PC3 cells) of 2%.
In the case of `O=C(NCCCc1ncc[nH]1)c1ccc2nc(OCC3CC3)c(-c3ccc(F)cc3)nc2c1` [Compound I-490, 2-(cyclopropylmethoxy)-3-(4-fluorophenyl)-N-[3-(1H-imidazol-2-yl)propyl]quinoxaline-6-carboxamide], the inhibition at 1 µM (hNAMPT protein; [1]) is reported as 95%, the IC50 (hNAMPT protein; [2]) is reported as < 100 nM and the inhibition at 1.667 µM (PC3 cells) is reported as 2%.
`CC(C)Oc1nc2ccc(C(=O)NCc3ccc4nccn4c3)cc2nc1-c1ccc(F)c(F)c1` [Compound I-367, 3-(3,4-Difluorophenyl)-N-(imidazo[1,2-a]pyridin-6-ylmethyl)-2-isopropoxyquinoxaline-6-carboxamide] was tested, and the IC50 (hNAMPT protein; NAMPT IC50 range class) was 500 to 1000 nM, the inhibition at 1 µM (hNAMPT protein; compound concentration 1 μM) was 50% and the inhibition at 1.667 µM (PC3 cells) was 0%.
In the case of `CN1CCC(Oc2nc3ccc(C(=O)NCCCc4ncc[nH]4)cc3nc2-c2ccc(F)cc2)CC1` [Compound I-345, 3-(4-fluorophenyl)-N-[3-(1H-imidazol-2-yl)propyl]-2-[(1-methylpiperidin-4-yl)oxy]quinoxaline-6-carboxamide], the IC50 (hNAMPT protein; NAMPT IC50 range class) is reported as < 100 nM, the inhibition at 1 µM (hNAMPT protein; compound concentration 1 μM) is reported as 98% and the inhibition at 1.667 µM (PC3 cells) is reported as 2%.
With `Cc1nccn1CCCNC(=O)c1ccc2nc(-c3ccc(F)cc3)c(-c3ccc(F)cc3)nc2c1` [Compound I-57, 2,3-bis(4-fluorophenyl)-N-[3-(2-methyl-1H-imidazol-1-yl)propyl]quinoxaline-6-carboxamide] the IC50 (hNAMPT protein; NAMPT IC50 range class) was < 100 nM, the inhibition at 1 µM (hNAMPT protein; compound concentration 1 μM) was 96% and the inhibition at 1 µM (PC3 cells) was 45%.
`COC1CCN(c2nc3ccc(C(=O)NCCCn4ccnc4)cc3nc2-c2ccccc2)C1` (stereo not drawn) [Compound I-226, N-[3-(1H-imidazol-1-yl)propyl]-2-(3-methoxypyrrolidin-1-yl)-3-phenylquinoxaline-6-carboxamide] gave an IC50 (hNAMPT protein; NAMPT IC50 range class) of 100 to 500 nM, an inhibition at 1 µM (hNAMPT protein; compound concentration 1 μM) of 70% and an inhibition at 1 µM (PC3 cells) of -7%.
For `COc1ccc(C)c(-c2nc3cc(C(=O)NCCCc4ncc[nH]4)ccc3nc2-c2ccc(F)cc2)c1` [Compound I-467, 2-(4-fluorophenyl)-N-[3-(1H-imidazol-2-yl)propyl]-3-(5-methoxy-2-methylphenyl)quinoxaline-6-carboxamide], the inhibition at 1 µM (hNAMPT protein; [1]) was 94%, the IC50 (hNAMPT protein; [2]) was < 100 nM and the inhibition at 1.667 µM (PC3 cells) was 2%.
In the case of `O=C(NCCCn1ccnc1)c1ccc2nc(-c3ccccc3)c(-c3ccc4[nH]ccc4c3)nc2c1` [Compound I-97, N-[3-(1H-imidazol-1-yl)propyl]-3-(1H-indol-5-yl)-2-phenylquinoxaline-6-carboxamide], the IC50 (hNAMPT protein; NAMPT IC50 range class) is reported as 500 to 1000 nM, the inhibition at 1 µM (hNAMPT protein; compound concentration 1 μM) is reported as 58% and the inhibition at 1 µM (PC3 cells) is reported as 1%.
Work on `O=C(NCCCn1ccnc1)c1ccc2nc(-c3ccccc3)c(N3CCC3)nc2c1` [Compound I-175, 3-(azetidin-1-yl)-N-[3-(1H-imidazol-1-yl)propyl]-2-phenylquinoxaline-6-carboxamide] yielded an IC50 (hNAMPT protein; NAMPT IC50 range class) of 2000 to 10000 nM, an inhibition at 1 µM (hNAMPT protein; compound concentration 1 μM) of 20% and an inhibition at 1 µM (PC3 cells) of 95%.
`O=C(NCCCc1ncc[nH]1)c1ccc2nc(OC3CCCC3)c(-c3ccc(F)cc3)nc2c1` [Compound I-400, 2-(cyclopentyloxy)-3-(4-fluorophenyl)-N-[3-(1H-imidazol-2-yl)propyl]quinoxaline-6-carboxamide] was tested, and the inhibition at 1 µM (hNAMPT protein; [1]) was 97%, the IC50 (hNAMPT protein; [2]) was < 100 nM and the inhibition at 1.667 µM (PC3 cells) was 2%.
`O=C(NCCCc1c[nH]cn1)c1ccc2nc(N3CCOCC3)c(-c3ccc(F)cc3)nc2c1` [Compound I-35, 3-(4-fluorophenyl)-N-[3-(1H-imidazol-4-yl)propyl]-2-(morpholin-4-yl)quinoxaline-6-carboxamide] was tested, and the IC50 (hNAMPT protein; NAMPT IC50 range class) was < 100 nM, the inhibition at 1 µM (hNAMPT protein; compound concentration 1 μM) was 90% and the inhibition at 1.667 µM (PC3 cells) was 2%.
`COc1cccc(-c2nc3cc(C(=O)NCCCc4ncc[nH]4)ccc3nc2-c2ccc(F)cc2)c1` [Compound I-484, 2-(4-fluorophenyl)-N-[3-(1H-imidazol-2-yl)propyl]-3-(3-methoxyphenyl)quinoxaline-6-carboxamide] was tested, and the inhibition at 1 µM (hNAMPT protein; [1]) was 99%, the IC50 (hNAMPT protein; [2]) was < 100 nM and the inhibition at 1.667 µM (PC3 cells) was 2%.
`O=C(NCCCn1ccnc1)c1ccc2nc(N3CC4CC4C3)c(-c3ccccc3)nc2c1` (stereo not drawn) [Compound I-159, 2-(3-azabicyclo[3.1.0]hex-3-yl)-N-[3-(1H-imidazol-1-yl)propyl]-3-phenylquinoxaline-6-carboxamide] gave an IC50 (hNAMPT protein; NAMPT IC50 range class) of 100 to 500 nM, an inhibition at 1 µM (hNAMPT protein; compound concentration 1 μM) of 71% and an inhibition at 1 µM (PC3 cells) of -6%.
`NCc1ccc(-c2nc3cc(C(=O)NCCc4cccnc4)ccc3nc2-c2ccccc2)cc1` [Compound I-286, 3-[4-(Aminomethyl)phenyl]-2-phenyl-N-[2-(pyridin-3-yl)ethyl]quinoxaline-6-carboxamide] was tested, and the IC50 (hNAMPT protein; NAMPT IC50 range class) was 2000 to 10000 nM, the inhibition at 1 µM (hNAMPT protein) was 13% and the inhibition at 1 µM (PC3 cells) was 4%.
